Results from ChEMBL document CHEMBL1124615, “A novel prodrug of an impermeant inhibitor of 3-deoxy-D-manno-2-octulosonate cytidylyltransferase has antibacterial activity” (J Med Chem, 1989).

Columns and labels:
[1] = In vitro inhibition of 3-deoxy-D-manno-2-octulosonate cytidylyltransferase (CMP-KDO) synthetase a key enzyme in the biosynthesis of the lipopolysaccharide (LPS) of Gram-negative bacteria
[2] = Compound was tested for the toxic effect in mice after intraperitoneal injection; type: ADME, organism-based; details: mouse, in vivo, ip
[3] = In vitro inhibition of (3-deoxy-D-manno-2-octulosonate cytidylyltransferase) CMP-KDO synthetase a key enzyme in the biosynthesis of the lipopolysaccharide (LPS) of Gram-negative bacteria; parameters: species or system Escherichia coli

Row | Structure (SMILES) | LD50 [2] | other results
1 | NC[C@@H](O)[C@H]1O[C@H](C(=O)O)C[C@@H](O)[C@H]1O | – | Ki [1]: 4 µM
2 | c1cc2c3c(cccc3c1)SC2 | ~640 mg/kg | –
3 | CSSc1cccc2cccc(COC(C)=O)c12 | > 1000 mg/kg | –
4 | O=C(O)[C@@H]1C[C@@H](O)[C@@H](O)[C@@H]([C@H](O)CO)O1 | – | Ki [3]: 12 µM
